In PubChem BioAssay (NCI):
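Following 48 hours of exposure in 96-well plates, responses at five concentrations were used to interpolate endpoints linearly. Here, GI50 denotes the concentration required for 50% inhibition of growth. At the TGI there is no net growth.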

Legend:
Test in all cases: NCI anticancer screen, dose series, 48 h
[1] = tested on: RPMI-8226 leukemia
[2] = tested on: SNB-75 CNS
[3] = tested on: UACC-62 melanoma
[4] = tested on: MDA-N
[5] = tested on: OVCAR-8 ovarian
[6] = tested on: SK-MEL-2 melanoma
[7] = tested on: MDA-MB-435
[8] = tested on: NCI-H522 lung
[9] = tested on: OVCAR-4 ovarian
[10] = tested on: LOX IMVI melanoma
[11] = tested on: NCI/ADR-RES ovarian
[12] = tested on: UO-31 renal
[13] = tested on: TK-10 renal
[14] = tested on: OVCAR-5 ovarian
[15] = tested on: HCT-116 colon
[16] = tested on: PC-3 prostate
[17] = tested on: OVCAR-3 ovarian
[18] = tested on: NCI-H226 lung
[19] = tested on: A549 NSCLC
[20] = tested on: T-47D breast
[21] = tested on: 786-0 renal
[22] = tested on: ACHN renal
[23] = tested on: RXF 393 renal
[24] = tested on: K-562 leukemia
[25] = tested on: HCT-15 colon
[26] = tested on: SNB-19 CNS
[27] = tested on: U251 CNS
[28] = tested on: MDA-MB-231 breast
[29] = tested on: CAKI-1 renal
[30] = tested on: SF-268 CNS
[31] = tested on: SN12C renal
[32] = tested on: BT-549 breast
[33] = tested on: NCI-H460 lung
[34] = tested on: M14 melanoma
[35] = tested on: NCI-H23 lung
[36] = tested on: SW-620 colon
[37] = tested on: HOP-92 NSCLC
[38] = tested on: KM12 colon
[39] = tested on: COLO 205 colon
[40] = tested on: DU-145 prostate
[41] = tested on: CCRF-CEM leukemia
[42] = tested on: SF-295 CNS
[43] = tested on: EKVX NSCLC
[44] = tested on: HT29 colon
[45] = tested on: SK-MEL-28 melanoma
[46] = tested on: MOLT-4 leukemia
[47] = tested on: SF-539 CNS
[48] = tested on: IGROV1 ovarian
[49] = tested on: A498 renal
[50] = tested on: SK-OV-3 ovarian
[51] = tested on: MALME-3M melanoma
[52] = tested on: SK-MEL-5 melanoma
[53] = tested on: HL-60(TB) leukemia
[54] = tested on: UACC-257 melanoma
[55] = tested on: HOP-62 NSCLC
[56] = tested on: MCF7 breast
[57] = tested on: HS 578T breast
[58] = tested on: SR leukemia
[59] = tested on: HCC-2998 colon

C=CCN1CCC(O)(c2cc(C(=O)OCC)[nH]c2-c2cc(C)no2)C1 (stereo unspecified)
TGI [1]: > 100 µM
TGI [2]: > 100 µM
TGI [3]: > 100 µM
TGI [4]: > 100 µM
TGI [5]: > 100 µM
TGI [6]: > 100 µM
TGI [7]: > 100 µM
TGI [8]: > 100 µM
TGI [9]: > 100 µM
TGI [10]: > 100 µM
TGI [11]: > 100 µM
TGI [12]: > 100 µM
TGI [13]: > 100 µM
TGI [14]: > 100 µM
TGI [15]: > 100 µM
TGI [16]: > 100 µM
TGI [17]: > 100 µM
TGI [18]: > 100 µM
TGI [19]: > 100 µM
TGI [20]: > 100 µM
TGI [21]: > 100 µM
TGI [22]: > 100 µM
TGI [23]: > 100 µM
TGI [24]: > 100 µM
TGI [25]: > 100 µM
TGI [26]: > 100 µM
TGI [27]: > 100 µM
TGI [28]: > 100 µM
TGI [29]: > 100 µM
TGI [30]: > 100 µM
TGI [31]: > 100 µM
TGI [32]: > 100 µM
TGI [33]: > 100 µM
TGI [34]: > 100 µM
TGI [35]: > 100 µM
TGI [36]: > 100 µM
TGI [37]: > 100 µM
TGI [38]: > 100 µM
TGI [39]: > 100 µM
TGI [40]: > 100 µM
TGI [41]: > 100 µM
TGI [42]: > 100 µM
TGI [43]: > 100 µM
TGI [44]: > 100 µM
TGI [45]: > 100 µM
TGI [46]: > 100 µM
TGI [47]: > 100 µM
TGI [48]: > 100 µM
TGI [49]: > 100 µM
TGI [50]: > 100 µM
TGI [51]: > 100 µM
TGI [52]: > 100 µM
TGI [53]: > 100 µM
TGI [54]: > 100 µM

COC(=O)c1cc2c(s1)-c1nccc3c1c(nc1ccccc13)C2=O
GI50 [3]: > 100 µM
TGI [3]: > 100 µM
GI50 [4]: 32.9 µM
TGI [4]: > 100 µM
GI50 [5]: 19.1 µM
TGI [5]: 48.4 µM
GI50 [6]: > 100 µM
TGI [6]: > 100 µM
GI50 [7]: 17.7 µM
TGI [7]: 32 µM
GI50 [8]: 35 µM
TGI [8]: > 100 µM
GI50 [9]: > 100 µM
TGI [9]: > 100 µM
GI50 [10]: 29 µM
TGI [10]: > 100 µM
GI50 [11]: > 100 µM
TGI [11]: > 100 µM
GI50 [12]: > 100 µM
TGI [12]: > 100 µM
GI50 [13]: > 100 µM
TGI [13]: > 100 µM
GI50 [14]: > 100 µM
TGI [14]: > 100 µM
GI50 [15]: > 100 µM
TGI [15]: > 100 µM
GI50 [16]: > 100 µM
TGI [16]: > 100 µM
GI50 [17]: 16.5 µM
TGI [17]: 56.2 µM
GI50 [18]: > 100 µM
TGI [18]: > 100 µM
GI50 [55]: 65.4 µM
TGI [55]: > 100 µM
GI50 [19]: > 100 µM
TGI [19]: > 100 µM
GI50 [20]: 62.8 µM
TGI [20]: > 100 µM
GI50 [21]: > 100 µM
TGI [21]: > 100 µM
GI50 [22]: > 100 µM
TGI [22]: > 100 µM
GI50 [23]: 29.8 µM
TGI [23]: > 100 µM
GI50 [24]: > 100 µM
TGI [24]: > 100 µM
GI50 [25]: > 100 µM
TGI [25]: > 100 µM
GI50 [26]: > 100 µM
TGI [26]: > 100 µM
GI50 [27]: 50.6 µM
TGI [27]: > 100 µM
GI50 [28]: 28.6 µM
TGI [28]: > 100 µM
GI50 [29]: > 100 µM
TGI [29]: > 100 µM
GI50 [30]: 29.1 µM
TGI [30]: > 100 µM
GI50 [31]: > 100 µM
TGI [31]: > 100 µM
GI50 [32]: > 100 µM
TGI [32]: > 100 µM
GI50 [33]: > 100 µM
TGI [33]: > 100 µM
GI50 [56]: 26.1 µM
TGI [56]: > 100 µM
GI50 [34]: 97.7 µM
TGI [34]: > 100 µM
GI50 [35]: > 100 µM
TGI [35]: > 100 µM
GI50 [36]: 61.7 µM
TGI [36]: > 100 µM
GI50 [38]: 69.4 µM
TGI [38]: > 100 µM
GI50 [39]: 50.2 µM
TGI [39]: > 100 µM
GI50 [40]: > 100 µM
TGI [40]: > 100 µM
GI50 [41]: > 100 µM
TGI [41]: > 100 µM
GI50 [42]: > 100 µM
TGI [42]: > 100 µM
GI50 [43]: > 100 µM
TGI [43]: > 100 µM
GI50 [44]: > 100 µM
TGI [44]: > 100 µM
GI50 [45]: > 100 µM
TGI [45]: > 100 µM
GI50 [46]: > 100 µM
TGI [46]: > 100 µM
GI50 [48]: 28.8 µM
TGI [48]: > 100 µM
GI50 [49]: > 100 µM
TGI [49]: > 100 µM
GI50 [50]: > 100 µM
TGI [50]: > 100 µM
GI50 [51]: 16.4 µM
TGI [51]: 59.5 µM
GI50 [52]: 33.8 µM
TGI [52]: > 100 µM
GI50 [57]: 28.2 µM
TGI [57]: > 100 µM
GI50 [53]: 12.3 µM
TGI [53]: > 100 µM
GI50 [54]: 32 µM
TGI [54]: > 100 µM

Nc1ccn([C@H]2CO[C@@H](CO)[C@@H]2O)c(=O)n1
TGI [1]: > 100 µM
TGI [2]: > 100 µM
TGI [3]: > 100 µM
TGI [4]: > 100 µM
TGI [6]: > 100 µM
TGI [7]: > 100 µM
TGI [58]: > 100 µM
TGI [9]: > 100 µM
TGI [10]: > 100 µM
TGI [11]: > 100 µM
TGI [12]: > 100 µM
TGI [13]: > 100 µM
TGI [14]: > 100 µM
TGI [15]: > 100 µM
TGI [16]: > 100 µM
TGI [17]: > 100 µM
TGI [18]: > 100 µM
TGI [55]: > 100 µM
TGI [20]: > 100 µM
TGI [21]: > 100 µM
TGI [22]: > 100 µM
TGI [23]: > 100 µM
TGI [24]: > 100 µM
TGI [25]: > 100 µM
TGI [27]: > 100 µM
TGI [28]: > 100 µM
TGI [29]: > 100 µM
TGI [30]: > 100 µM
TGI [31]: > 100 µM
TGI [32]: > 100 µM
TGI [33]: > 100 µM
TGI [56]: > 100 µM
TGI [35]: > 100 µM
TGI [36]: > 100 µM
TGI [37]: > 100 µM
TGI [38]: > 100 µM
TGI [39]: > 100 µM
TGI [40]: > 100 µM
TGI [41]: > 100 µM
TGI [42]: > 100 µM
TGI [43]: > 100 µM
TGI [44]: > 100 µM
TGI [45]: > 100 µM
TGI [46]: > 100 µM
TGI [47]: > 100 µM
TGI [48]: > 100 µM
TGI [49]: > 100 µM
TGI [50]: > 100 µM
TGI [59]: > 100 µM
TGI [52]: > 100 µM
TGI [54]: > 100 µM
